According to ChEMBL document CHEMBL4041541, “Solvent free, catalyst free, microwave or grinding assisted synthesis of bis-cyclic imide derivatives and their evaluation for anticancer activity” (Bioorg Med Chem Lett, 2017):

Tests used:
[1] = tested on: HCT-15; test: Growth inhibition of human HCT15 cells after 24 hrs by MTT assay; format: functional, cell-based; conditions: HCT-15, 24 h
[2] = tested on: PA-1; test: Growth inhibition of human PA1 cells after 24 hrs by MTT assay; format: functional, cell-based; conditions: PA-1, 24 h
[3] = tested on: HepG2; test: Growth inhibition of human HepG2 cells after 24 hrs by MTT assay; format: functional, cell-based; conditions: HepG2, 24 h
[4] = tested on: NCI-H522; test: Growth inhibition of human NCI-H522 cells after 24 hrs by MTT assay; format: functional, cell-based; conditions: NCI-H522, 24 h
[5] = tested on: T47D; test: Growth inhibition of human T47D cells after 24 hrs by MTT assay; format: functional, cell-based
[6] = tested on: PA-1; test: Growth inhibition of human PA1 cells at 1 x 10^-5 M after 24 hrs by MTT assay relative to control; format: functional; conditions: PA-1, 24 h, read-out: GI
[7] = tested on: HEK-293T; test: Growth inhibition of HEK293T cells after 24 hrs by MTT assay; format: cell-based; conditions: Homo sapiens
[8] = Selectivity index, ratio of IC50 for HEK293T cells to IC50 for human HCT15 cells; format: functional
[9] = tested on: T47D; test: Growth inhibition of human T47D cells at 1 x 10^-5 M after 24 hrs by MTT assay relative to control; format: functional; conditions: read-out: GI
[10] = tested on: NCI-H522; test: Growth inhibition of human NCI-H522 cells at 1 x 10^-5 M after 24 hrs by MTT assay relative to control; format: functional; conditions: NCI-H522, 24 h, read-out: GI
[11] = tested on: HepG2; test: Growth inhibition of human HepG2 cells at 1 x 10^-5 M after 24 hrs by MTT assay relative to control; format: functional; conditions: HepG2, 24 h, read-out: GI
[12] = Selectivity index, ratio of IC50 for HEK293T cells to IC50 for human T47D cells; format: functional
[13] = Selectivity index, ratio of IC50 for HEK293T cells to IC50 for human PA1 cells; format: functional
[14] = Selectivity index, ratio of IC50 for HEK293T cells to IC50 for human HepG2 cells; format: functional
[15] = tested on: HCT-15; test: Growth inhibition of human HCT15 cells at 1 x 10^-5 M after 24 hrs by MTT assay relative to control; format: functional; conditions: HCT-15, 24 h, read-out: GI
[16] = Selectivity index, ratio of IC50 for HEK293T cells to IC50 for human NCI-H522 cells; format: functional

| SMILES | IC50 [1] [µM] | IC50 [2] [µM] | IC50 [3] [µM] | IC50 [4] [µM] | IC50 [5] [µM] | inhibition of growth at 10 µM [6] [%] | IC50 [7] [µM] | Ratio IC50 [8] | inhibition of growth at 10 µM [9] [%] | inhibition of growth at 10 µM [10] [%] | inhibition of growth at 10 µM [11] [%] | Ratio IC50 [12] | Ratio IC50 [13] | Ratio IC50 [14] | inhibition of growth at 10 µM [15] [%] | Ratio IC50 [16] |
| --- | --- | --- | --- | --- | --- | --- | --- | --- | --- | --- | --- | --- | --- | --- | --- | --- |
| O=C1C2CC=CCC2C(=O)N1c1ccc(S(=O)(=O)c2ccc(N3C(=O)C4CC=CCC4C3=O)cc2)cc1 (stereo not drawn) | 14.4 | 32.1 | 18.3 | 37.1 | 31.1 | 41 | 42.2 | 2.5 - 4.5 | 41 | 56 | 19 | 2.5 - 4.5 | 2.5 - 4.5 | 2.5 - 4.5 | 51 | 2.5 - 4.5 |
| O=C1C2CCCCC2C(=O)N1c1ccc(S(=O)(=O)c2ccc(N3C(=O)C4CCCCC4C3=O)cc2)cc1 (stereo not drawn) | 63.3 | 22.6 | 17.1 | 19.6 | 12.7 | 36 | 43.6 | 2.5 - 4.5 | 51 | 49 | 57 | 2.5 - 4.5 | 2.5 - 4.5 | 2.5 - 4.5 | 65 | 2.5 - 4.5 |
| O=C1C2CC=CCC2C(=O)N1CCOCCOCCN1C(=O)C2CC=CCC2C1=O (stereo not drawn) | 21.1 | 18.8 | 17.3 | 38 | 14.5 | 31 | 44.2 | 2.5 - 4.5 | 51 | 59 | 53 | 2.5 - 4.5 | 2.5 - 4.5 | 2.5 - 4.5 | 45 | 2.5 - 4.5 |
